Measurements published in patent publication US4582851A, “Anti-bacterial 1,4-aminoalkylamino-9H-thioxanthen-9-one derivatives, compositions, and method of use therefor” (Warner-Lambert Company, priority 1985, dated 1986).
Where a name gives a salt, the structure may show the parent alone. Each block holds one compound with its values, some of them ahead of it.

Assays:
[1] = test system: P-388 lymphocytic leukemia; details: cited from earlier work
P388 = details: cited from earlier work
[2] = test system: lymphocytic leukemia P388; experiment: P388 in vivo lymphocytic leukemia test; design: species or system male or female CD2 F1 mice; details: for P388 in vivo T/C × 100: two single doses, four-day interval; for Number of animals surviving 30 days and considered "cured": six to seven animals per group
Procedure: The in vivo lymphocytic leukemia P388 test is carried out by the United States National Cancer Institute. The animals used are either male or female CD2 F1 mice. There are six to seven animals per test group. The tumor transplant is by intraperitoneal injection of dilute ascitic fluid containing cells of lymphocytic leukemia P388. The test compounds are administered intraperitoneally in two single doses with a four-day interval between doses at various dose levels following tumor inoculation. The animals are weighed and survivors are recorded on a regular basis for 30 days. A ratio of survival time for treated (T)/control (C) animals is calculated. The criterion for efficacy is T/C×100>125%. The positive control compound in this test is 1,4-dihydroxy-5,8-[bis[[2-[(2-hydroxyethyl)amino]-ethyl]]amino]-9,10-anthracenedione given at dosages ranging from 12.0 to 0.075 mg/kg. See Cancer Chemotherapy Reports, Part 3, 3, 1 (1972) for a comprehensive discussion of the protocol.

B. Subtilis = experiment: Inhibitory zone diameter, agar disc assay, B. subtilis; type: cell-based; details: Bacillus subtilis; for zone of inhibition at 100 µg/mL: Conc. 100 (mg/ml)
Procedure: (§1) 1. Preparation of inocula
(§2) The bacterial and yeast isolates are maintained in agar slants or in liquid media, hereby designated as inoculum media. The cultures are transferred at regular intervals in such media. (See Table for the corresponding inoculum media of each culture.) The organisms are generally transferred on to agar slants or liquid inoculum media and incubated overnight (18-20 hours): 37° C. for the bacterial isolates and 28° C. for the fungal cultures.
(§3) The microbial cells from the overnight agar slants are then scraped off and suspended in saline solution (0.85% NaCl). The microbial concentrations are adjusted to a light transmittancy of 20-35%, Junior Coleman Spectrophotometer (555M). For the organisms that are maintained in liquid media, an aliquot of the culture suspension is simply diluted with saline to 20-35% light transmittancy.
(§4) The above microbial suspension serve as inocula for the assay plates. Thus, 0.16-10 ml (see Table for exact amount) are used to inoculate 100 ml of the molten-agar assay medium.
(§5) Stainless steel frames, 12.3×25.3 cm (ID) and glass plates, 15.3×31.7 cm are used to make the test trays. The frames are attached to the plates with tape at each end and the inner edges sealed with 2% agar. Twenty five ml of inoculated assay medium is spread evenly on each tray and allowed to solidify. The trays are covered, inverted, and refrigerated until used.
(§6) The compounds or samples to be tested are dissolved in suitable solvents, e.g., alcohols, dimethylsulfoxide, or N,N-dimethylformamide. The samples are generally dissolved so that the final concentration of the solvent is <10%.* The compounds are tested at different concentrations: 3,000; 1,000; 500; 100; and 10 mcg/ml. Paper discs (12.7 mm diameter) are placed on the agar trays with forceps, then 0.08 ml of the dissolved compound is pipetted onto each disc using a 0.2 ml pipette.
(§7) The disked agar trays are incubated overnight (18-20 hours) at 37° C. for the bacterial cultures and 28° C. for the yeasts. […] The diameter of the zone is measured in mm. […]

S. Faeculic = experiment: Inhibitory zone diameter, agar disc assay, S. faecalis; type: cell-based, Streptococcus faecalis; details: Enterococcus faecalis
Procedure: as §1, §2, §3, §4, §5, §6, §7

A. Viscolacti = experiment: Inhibitory zone diameter, agar disc assay, A. viscolacti; type: cell-based; details: read-out: Inhibitory Zone Diameter, A. viscolacti
Procedure: as §1, §2, §3, §4, §5, §6, §7

N. Catarrhali = experiment: Inhibitory zone diameter, agar disc assay, N. catarrhali; type: cell-based; details: Conc. 100 (mg/ml)
Procedure: as §1, §2, §3, §4, §5, §6, §7

E. coli = experiment: Inhibitory zone diameter, agar disc assay, E. coli; type: cell-based, Escherichia coli
Procedure: as §1, §2, §3, §4, §5, §6, §7

L1210 cells = experiment: L1210 in vitro (murine leukemia cell growth); type: cell-based; details: Mus musculus, L1210, 72 h; 3 days, 37° C., 5% CO2; read-out: L1210 in vitro ID50
Procedure: A test protocol uses L1210 cells, a murine leukemia cell line, grown in RPMI 1640 supplemented with 5% fetal bovine serum and gentamicin (50 μg/ml). Drug dilutions are prepared in the appropriate solvent and 20 μl of each dilution are added to 24-well Linbro tissue culture plates, followed by the addition of 2.0 ml of cell suspension containing 3×10^4 cells per ml. Solvent and medium controls are included in each test. After incubation at 37° C. for three days in 5% CO2, the contents of each well are removed and the cells counted in a ZBI Coulter counter. Percent growth are calculated relative to the controls and the levels of drug activity are expressed as ID50 in moles per liter.

[3] = test system: HCT-8 (human colon adenocarcinoma) cells; experiment: HCT-8 in vitro (human colon adenocarcinoma); type: cell-based; details: 60-65 hrs at 37° C., read-out: HCT-8 in vitro ID50
Procedure: In addition to their usefulness as antibiotic and antifungal agents and as antileukemic agents, certain of the compounds of the invention display in vitro activity against solid tumors when tested by the following procedure.
HCT-8 (human colon adenocarcinoma) cells are trypsinized using Trypsin-EDTA. A single cell suspension is achieved by passing the cells through a 26 gauge needle with a 20 cc syringe. A cell suspension is prepared using RPMI 1640 growth medium (available from Gibco Laboratories)+10% fetal calf serum+50 μg/ml garamycin with a cell concentration of approximately 30,000 cells/ml. The cell suspension is dispensed in Linbro 24-well plates; 1 ml/well. The plates are incubated for approximately 48 hrs at 37° C. in a 5% CO2 atmosphere. At this time test compounds are added in the appropriate concentration. Five μl of the 200 μg/ml stock solution is added to each well in a primary test. Ten μl of the appropriate dilution is added to each well for a titration test. The plates are reincubated an additional 60-65 hrs at 37° C. in a 5% CO2 atmosphere. The test is read by lysing the cells using a mix of cationic surfactant, glacial acetic acid and sodium chloride. Two ml of the lysed cell suspension from each well is added to 8 ml of diluent. Each sample is read with a Coulter counter (ZBI model). The activity of each sample is measured as a percentage of the controls and the data is reported as ID50, that is the molar quantity of drug required to kill 50% of the tumor cells.

tumor = details: cited from earlier work
[4] = 12.5 mg/kg i.p. (printed 125 for Example 1)

SMILES: Cc1ccc(NCCNCCO)c2c(=O)c3ccccc3sc12
activity against the P-388 lymphocytic leukemia [1]: inactive

SMILES: Cc1ccc(NCCN(C)C)c2c(=O)c3ccccc3sc12
activity against the P-388 lymphocytic leukemia [1]: inactive

SMILES: CCN(CC)CCNc1ccc(C)c2sc3ccc(O)cc3c(=O)c12 [7-hydroxy analog of lucanthone]
in vivo P388 activity (P388): shown to have in vivo P388 activity

SMILES: CN(C)CCNc1ccc(NCCNCCO)c2sc3ccccc3c(=O)c12.Cl.Cl.Cl [Example 1, 1-[[2-(Dimethylamino)ethyl]amino]-4-[[2-[(2-hydroxyethyl)amino]ethyl]amino]-9H-thioxanthen-9-one trihydrochloride]
P388 in vivo T/C × 100 [2, 4]: 190% | P388 in vivo T/C × 100 ([2]; 25 mg/kg i.p.): 236% | Number of animals surviving 30 days and considered "cured" ([2]; 25 mg/kg i.p.): 1 | zone of inhibition at 100 µg/mL (B. Subtilis): 19 mm | zone of inhibition at 1600 µg/mL (S. Faeculic; Conc. 1600 (mg/ml)): 19 mm | zone of inhibition at 100000 µg/mL (A. Viscolacti): 17 mm | zone of inhibition at 100 µg/mL (N. Catarrhali): 21 mm | zone of inhibition at 3 g/mL (E. coli; Escherichia coli, read-out: Inhibitory Zone Diameter, E. coli): 17 mm

SMILES: CCN(CC)CCNc1ccc(N)c2sc3ccccc3c(=O)c12 [Example 1c]
activity against the P-388 lymphocytic leukemia [1]: inactive

SMILES: CN(C)CCNc1ccc(NCCN)c2sc3ccccc3c(=O)c12 [Example 2, 4-[(2-Aminoethyl)amino]-1-[[2-(dimethylamino)ethyl]amino]-9H-thioxanthen-9-one, hydrochloride]
P388 in vivo T/C × 100 [2, 4]: 187% | P388 in vivo T/C × 100 ([2]; 25 mg/kg i.p.): 212% | Number of animals surviving 30 days and considered "cured" ([2]; 25 mg/kg i.p.): 1 | zone of inhibition at 100 µg/mL (B. Subtilis): 16 mm | zone of inhibition at 500 µg/mL (S. Faeculic; Conc. 500 (mg/ml)): 14 mm | zone of inhibition at 100000 µg/mL (A. Viscolacti): 23 mm | zone of inhibition at 100 µg/mL (N. Catarrhali): 20 mm | zone of inhibition at 1000 µg/mL (E. coli; Escherichia coli, Conc. 1000 (mg/ml)): 14 mm

SMILES: CN(C)CCNc1ccc(NCCCN)c2sc3ccccc3c(=O)c12.Cl.Cl.Cl [Example 3, 4-[(3-Aminopropyl)amino]-1-[[2-(dimethylamino)ethyl]amino]-9H-thioxanthen-9-one, trihydrochloride]
P388 in vivo T/C × 100 ([2]; 25 mg/kg i.p.): 125% | zone of inhibition at 1000 µg/mL (B. Subtilis; Conc. 1000 (mg/ml)): 16 mm | zone of inhibition at 3000 µg/mL (S. Faeculic; Conc. 3000 (mg/ml)): 18 mm | zone of inhibition at 100000 µg/mL (A. Viscolacti): 14 mm | zone of inhibition at 100 µg/mL (N. Catarrhali): 24 mm | Inhibitory Zone Diameter, E. coli (E. coli; concentration not given): 0 mm

IC50 (L1210 cells): 120 nM | IC50 [3]: 270 nM
SMILES: CN(C)CCNc1ccc([N+](=O)[O-])c2sc3ccccc3c(=O)c12 [Example 4, 1-[[2-(dimethylamino)ethyl]amino]-4-nitro-9H-thioxanthen-9-one]

IC50 (L1210 cells): 1200 nM | IC50 [3]: 1100 nM
SMILES: CCN(CC)CCNc1ccc([N+](=O)[O-])c2sc3cc(OC)ccc3c(=O)c12 [Example 5 NH(CH2)2 NEt2 6-OMe]
P388 in vivo T/C × 100 ([2]; 100 mg/kg i.p.): 104%

IC50 (L1210 cells): 6.5 nM
SMILES: CN(C)CCNc1ccc([N+](=O)[O-])c2sc3ccc(O)cc3c(=O)c12 [Example 5 NH(CH2)2 NMe2 7-OH, 1-[[2-(Dimethylamino)ethyl]amino]-7-hydroxy-4-nitro-9H-thioxanthen-9-one]

IC50 (L1210 cells): 250 nM | IC50 [3]: 1000 nM
SMILES: COc1ccc2sc3c([N+](=O)[O-])ccc(NCCN(C)C)c3c(=O)c2c1 [Example 5 NH(CH2)2 NMe2 7-OMe, 1-[[2-(Dimethylamino)ethyl]amino]-7-methoxy-4-nitro-9H-thioxanthen-9-one]
P388 in vivo T/C × 100 ([2]; 100 mg/kg i.p.): 178%

IC50 (L1210 cells): 96 nM | IC50 [3]: 460 nM
SMILES: CN(C)CCCNc1ccc([N+](=O)[O-])c2sc3ccccc3c(=O)c12 [Example 5 NH(CH2)3 NMe2 H, 1-[[3-(dimethylamino)propyl]amino]-4-nitro-9H-thioxanthen-9-one]
P388 in vivo T/C × 100 ([2]; 50 mg/kg i.p.): 190%

SMILES: CCN(CC)CCNc1ccc(CO)c2sc3ccccc3c(=O)c12 [hycanthone]
Experimental antitumor activity (tumor): Experimental antitumor activity has been reported

SMILES: CCN(CC)CCNc1ccc(C)c2sc3ccccc3c(=O)c12 [lucanthone]
Experimental antitumor activity (tumor): Experimental antitumor activity has been reported
